The term viability denotes a read-out of living cells in per cent, often relative to untreated cells.

The nature of the data set: in vitro. As to conditions: human, hela cells, % viability.
For `Fc1cnc(N2CCCC3(CCOC3)C2)nc1N1CCOCC1` (stereo not shown) [CBK307131], the viability at 28.5 h, 10 µM came to 84.5%. With `CCn1c(CC2CCN(C(=O)c3ccc(C)c(C)c3)CC2)nn(C)c1=O` [CBK307133] the figure was 87.8%; with `Cc1ccc2c(c1)c(C(=O)N1CCn3nc(CO)cc3C1)nn2C` [CBK307134], 104%; with `CCN1CC2(CCC1=O)CCN(Cc1nnc(-c3cccnc3)o1)CC2` [CBK307137], 92.6%. As for `CCOc1cc2c(cc1CN1CCN(Cc3noc(C)n3)CC1)CCC2` [CBK307138], the viability at 28.5 h, 10 µM turned out to be 83.1%. `CCOC(=O)c1cn(CC)c2cc(F)c(OCC)cc2c1=O` [CBK307139]: the viability at 28.5 h, 10 µM was 87.8%. With `CCOC(=O)c1cn(CC)c2cc(N3CCSCC3)c(F)cc2c1=O` [CBK307143] the figure was 89.8%; with `CCn1cc(C(=O)NN)c(=O)c2cc(F)c(N3CCCC3)cc21` [CBK307146], 82.9%; with `CC(C)CC(NC(=O)c1cccnc1)c1nnc2n1CCNCC2` (stereo not shown) [CBK307149], 89.2%. To `O=C(Nc1ccnn1Cc1cccs1)N1Cc2cnn(CCO)c2C1` [CBK307150] belongs 89.7%; to `CN(Cc1nc2c(s1)CCCC2)C(=O)COc1ncnc2ccccc12` [CBK307151], 90.7%.

Regarding `COc1cccc2ncn(CCCc3c(C)n[nH]c3C)c(=O)c12` [CBK307153], the viability at 28.5 h, 10 µM stood at 82.9%. With `Cn1nc(CO)c2c1CCN(CC(=O)Nc1nc(C(C)(C)C)cs1)C2` [CBK307161] the figure was 85.7%; with `Cn1c(N2CC[C@H](O)C2)nc2cc(C(=O)NCC3CC3)ccc21` [CBK307164], 92.1%; with `CC(=O)Nc1ccc(F)c(NC(=O)NCCN2CCCOC2=O)c1` [CBK307166], 92.8%. To `CCOC(=O)c1cn(CC)c2cc(N3CCCC3)c(F)cc2c1=O` [CBK307169] belongs 101%; to `CCn1cc(C(=O)N2CCCC2c2nccs2)c(=O)c2ccc(C)nc21` (stereo not shown) [CBK307171], 86.4%; to `CC(C)(C)NC(=O)c1nn2c(c1Br)NC(c1cccs1)CC2C(F)(F)F` (stereo not shown) [CBK307175], 84.9%. To `CC(C)OC(=O)c1cc2n(n1)C(C(F)(F)F)CC(c1cccs1)N2` (stereo not shown) [CBK307176] belongs 87.6%; to `CCn1nc(C(C)C)cc1C(=O)N1CC2(CCNCC2)CC1C(=O)O` (stereo not shown) [CBK307179], 90.9%; to `O=C(c1nn2c(c1Br)NC(c1cccs1)CC2C(F)(F)F)N1CCCC1` (stereo not shown) [CBK307180], 88.7%. Regarding `Cc1cccc(=O)n1CCCn1cnc2nccnc2c1=O` [CBK307186], the viability at 28.5 h, 10 µM worked out at 116%. With `CN1CCC(OCCCn2ccnc2-c2ccccc2C(=O)O)CC1` [CBK307188] the figure was 87%; with `Cc1cc(OCC(=O)N(C)C)c2c3c(c(=O)oc2c1)CCCC3` [CBK307189], 96.3%; with `Cc1nn(C)c2nc(NCc3ccc(C(=O)N4CCCC4)cc3)sc12` [CBK307190], 88.6%. To `Cc1cc(C)c(CNC(=O)N(C)C(C)c2ccncn2)cn1` (stereo not shown) [CBK307192] belongs 93.4%; to `COc1ccc2c(c1)cc(C(=O)NCc1cncn1CC(C)C)n2C` [CBK307193], 89.3%. Take `COC(=O)c1ccc(NC(=O)N2CCCCC2CCn2ccnc2)cc1` (stereo not shown) [CBK307195]: the viability at 28.5 h, 10 µM came to 86.8%. To `COc1ccc2c(c1)cc(C(=O)N(C)CCCn1nc(C)cc1C)n2C` [CBK307196] belongs 81.4%; to `CC(NC(=O)N(C)Cc1ccc2ccccc2n1)c1nncn1C(C)C` (stereo not shown) [CBK307197], 92.9%; to `CSc1nc(C(=O)NC2CCCN(c3ncccn3)C2)cs1` (stereo not shown) [CBK307198], 98.7%.

In the case of `CN(C)c1ccc(-c2nc(C(F)(F)F)nn2C)cn1` [CBK307202], the viability at 28.5 h, 10 µM was 87.1%. With `CN1CCN(c2cnn(CCCOc3ccccc3)c(=O)c2)CC1` [CBK307203] the figure was 100%. With `COc1cccc(CN2CCCC(NC(=O)c3cn4ccsc4n3)C2)c1` (stereo not shown) [CBK307204] the figure was 81.1%. Regarding `Cn1nc2n(c1=O)CC(C(=O)NCCN1CCCc3ccccc31)CC2` (stereo not shown) [CBK307206], the viability at 28.5 h, 10 µM is 93.5%. Regarding `CCCc1nnc2sc(C3CCC(=O)N(CC(C)C)C3)nn12` (stereo not shown) [CBK307207], the viability at 28.5 h, 10 µM turned out to be 95.6%. With `COc1cccc2ncn(CCCc3nc(C)c(C)s3)c(=O)c12` [CBK307208] the figure was 95.2%; with `CCCCSc1nc(N)cc(N2CCCN(C(=O)C3CCCO3)CC2)n1` (stereo not shown) [CBK307209], 86.8%. With `Cn1ccnc1C(NC(=O)N1CCOc2ccc(Cl)cc2C1)C1CC1` (stereo not shown) [CBK307212] the figure was 91%; with `CCCCC(c1cccnc1)N(C)C(=O)c1cc(CC)[nH]c(=O)c1` (stereo not shown) [CBK307216], 107%; with `CCn1c(CC2CCN(C(=O)CCN3CCCCO3)CC2)nn(C)c1=O` [CBK307217], 95.4%. Turning to `CN(CCN1CCCCC1=O)c1nccc(CCC(F)(F)F)n1` [CBK307218], the viability at 28.5 h, 10 µM was found to be 106%.

With `CC(=O)COc1cc(OCC(C)=O)c2c3c(c(=O)oc2c1)CCC3` [CBK307219], the viability at 28.5 h, 10 µM is 85.1%. With `COc1ccc(CN2CCOCC2CC(=O)O)cc1Cn1cncn1` (stereo not shown) [CBK307220] the figure was 92.7%. To `CCc1noc(C)c1C(=O)N1CC[C@@H](CNC(=O)N2CCCC2)[C@H](O)C1` [CBK307222] belongs 88.3%; to `CCN1CC2(CCCN(Cc3cncn3C3CCCCC3)C2)CCC1=O` (stereo not shown) [CBK307223], 98.1%; to `CCn1cc(CN(Cc2cccnc2)Cc2ccccc2OC)cn1` [CBK307224], 84.2%. With `O=C(N[C@@H]1COCC[C@@H]1OCC1CC1)c1cccc2c1NCCC2` [CBK307227] the figure was 102%. On to `Cc1ccc2nc(CNC(=O)CN(C)C3CCNCC3)cn2c1` [CBK307228], for which the viability at 28.5 h, 10 µM came out at 96.6%.

Take `CCCNC(=O)NC1CC(C)(C)Cc2nc(N3CCOCC3)ncc21` (stereo not shown) [CBK307232]: the viability at 28.5 h, 10 µM amounted to 85.7%.

On to `COc1ccccc1C(=O)Nc1sc2c(c1C#N)CC(C)(C)NC2(C)C` [CBK307233], for which the viability at 28.5 h, 10 µM amounted to 99.9%.

For the compound `Cc1ccc(F)cc1C(=O)NCC1CCN(c2cnn(C)c(=O)c2)C1` (stereo not shown) [CBK307235], the viability at 28.5 h, 10 µM is 92.2%. To `COc1ccc(Cl)cc1CN(C)C(=O)c1cnn2cc(CCO)cnc12` [CBK307236] belongs 97.7%; to `O=C(c1nc2ccccn2c1CN1CCCC(O)C1)N1CCOCC1` (stereo not shown) [CBK307237], 88.4%. To `Cc1cc(=O)cc(C(=O)NC2CCN(c3ncccc3C#N)CC2)o1` [CBK307240] belongs 86.2%.

With `CCOc1ccc(-c2ccnc(N3CCC(N(C)C)C3)n2)cc1C(=O)O` (stereo not shown) [CBK307241], the viability at 28.5 h, 10 µM stood at 95%. With `Cc1nc(N2CCCCC2)ncc1C(=O)NCc1nonc1C` [CBK307243] the figure was 87.7%. `CCOC(=O)c1cn(CCSCC)cc(Oc2ccccc2)c1=O` [CBK307244]: the viability at 28.5 h, 10 µM was 115%. To `CCCc1nc(C(=O)N2Cc3cnn(Cc4ccc(F)cc4)c3C2)cs1` [CBK307249] belongs 86%; to `CCN1CC2(CCC1=O)CCN(Cc1cccc(C(C)N(C)C)c1)CC2` (stereo not shown) [CBK307250], 116%. Turning to `COc1nc2ccn(CC(O)CO)c(=O)c2cc1C#N` (stereo not shown) [CBK307251], the viability at 28.5 h, 10 µM was 97.1%. To `CCCn1nccc1S(=O)(=O)NCCN1CCCCC1CO` (stereo not shown) [CBK307259] belongs 82%; to `Cc1cc(C(F)(F)F)nn1CCNC(=O)c1cn2ccsc2n1` [CBK307260], 112%; to `CCOc1ccc(NC(=O)NC(CC)c2cnn(C)c2)cc1Cl` (stereo not shown) [CBK307262], 107%.

For the compound `CCCS(=O)(=O)NC1CC(C)(C)Cc2c1cnn2-c1ccccc1` (stereo not shown) [CBK307265], the viability at 28.5 h, 10 µM was found to be 98.1%. To `CN(c1ncccc1CNC(=O)c1c[nH]c(=O)c(Cl)c1)C1CCCCC1` [CBK307267] belongs 92.6%; to `Cc1cc(CC(=O)NCCCn2ccnc2C(C)C)on1` [CBK307270], 99.7%. With `CN(C)CCn1ccnc1C1CCCN(C(=O)Cc2cccc(Cl)c2)C1` (stereo not shown) [CBK307272] the figure was 92.3%; with `N#Cc1cccnc1N1CCC(NC(=O)Cn2cccnc2=O)CC1` [CBK307275], 95.7%; with `Cc1cc(C)n2nc(CC(=O)NCCCn3cc(Cl)cn3)nc2n1` [CBK307276], 84.3%. To `COc1cc2c(cc1CN1CCOCC1CC(=O)O)CCC2` (stereo not shown) [CBK307277] belongs 102%. For the compound `O=C(NCCCn1cc(Cl)cn1)N1CCCN(Cc2cccs2)CC1` [CBK307279], the viability at 28.5 h, 10 µM stood at 105%. To `CCn1c(C2CCN(C(=O)c3ccc(C)c(Cl)c3)CC2)nn(C)c1=O` [CBK307280] belongs 95.9%; to `COc1ccc(Cc2nc(CCNC(C)=O)n(CC(F)(F)F)n2)cc1` [CBK307287], 77.8%.

`Cc1cc(-c2cn3cc(C(=O)NCCO)nc3c(=O)n2C)c(C)o1` [CBK307288]: the viability at 28.5 h, 10 µM was 89.4%.

Turning to `COCCn1c(CN2Cc3ccc(Cl)cc3C2=O)nnc1[C@H]1C[C@@H](N)C1` [CBK307289], the viability at 28.5 h, 10 µM is 102%. With `OC(c1cccs1)C1CCN(Cc2cnn(-c3ccccc3)c2)CC1` (stereo not shown) [CBK307290] the figure was 105%; with `Cc1csc2c(N3CCC(NCCCc4cnn(C)c4)CC3)ncnc12` [CBK307291], 98.2%. To `Cn1cc(CCC(=O)NC(Cc2ccncc2)[C@H]2C[C@H](O)C2)cn1` (stereo partly shown) [CBK307292] belongs 82.4%. To `Cc1nc2c(c(N(C)C)n1)CCN(C(=O)C(C)n1cc(Cl)cn1)C2` (stereo not shown) [CBK307293] belongs 110%. For the compound `Cc1nc2cc(OCc3nc(C(=O)NC4CCNC4=O)co3)ccc2s1` (stereo not shown) [CBK307298], the viability at 28.5 h, 10 µM is 91.8%. To `COc1cccc2ncn(CCc3n[nH]c(N)n3)c(=O)c12` [CBK307301] belongs 90.8%.

The values are drawn from publication PMC12040169 (PLOS Biology, 2025).
